Measured values: EP2519511B1, “NOVEL PIPERINE DERIVATIVES AS GABA-A RECEPTORS MODULATORS” (Universität Wien, priority 2009, dated 2011)
Values joined by “and” are separate entries in the source; they are usually repeats but may differ in a detail not shown here. Equal entries are not always repeated.

Assays:
[1] = target: human TRPV1 receptor (hTRPV1) (Homo sapiens, UniProt Q8NER1); assay: Activation of cation current through TRPV1 expressed in Xenopus oocytes; assay type: cell-based; conditions: 300 µM applied to oocytes, Fig. 4
human TRPV1 receptor (hTRPV1), sequence (Q8NER1 whole entry): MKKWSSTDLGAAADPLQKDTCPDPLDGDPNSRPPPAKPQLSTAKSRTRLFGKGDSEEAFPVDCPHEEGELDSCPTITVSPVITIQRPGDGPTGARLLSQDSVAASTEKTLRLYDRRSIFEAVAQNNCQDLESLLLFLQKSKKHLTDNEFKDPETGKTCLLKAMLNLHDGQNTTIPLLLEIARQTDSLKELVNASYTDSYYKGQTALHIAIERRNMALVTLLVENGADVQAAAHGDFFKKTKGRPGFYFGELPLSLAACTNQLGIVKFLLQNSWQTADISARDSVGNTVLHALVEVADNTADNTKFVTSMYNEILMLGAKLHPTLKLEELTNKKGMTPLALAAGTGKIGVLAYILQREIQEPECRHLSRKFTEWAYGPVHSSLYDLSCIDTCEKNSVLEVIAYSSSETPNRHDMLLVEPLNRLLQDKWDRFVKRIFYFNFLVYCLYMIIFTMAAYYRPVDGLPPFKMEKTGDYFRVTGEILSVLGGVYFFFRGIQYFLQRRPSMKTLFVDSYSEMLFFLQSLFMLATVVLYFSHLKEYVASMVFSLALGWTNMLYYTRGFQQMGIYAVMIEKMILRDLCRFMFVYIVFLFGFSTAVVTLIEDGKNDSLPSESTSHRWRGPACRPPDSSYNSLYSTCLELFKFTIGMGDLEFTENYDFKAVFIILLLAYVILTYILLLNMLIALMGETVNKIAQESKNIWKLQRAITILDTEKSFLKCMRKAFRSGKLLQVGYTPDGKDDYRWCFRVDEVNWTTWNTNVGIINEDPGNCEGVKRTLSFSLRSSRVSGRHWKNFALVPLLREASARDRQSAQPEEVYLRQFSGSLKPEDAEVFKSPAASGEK
Protocol: cRNA encoding for the human TRPV1 receptor (hTRPV1) was injected into Xenopus oocytes as previously described (Hu et al. 2004).

Male mice (C57BI/6N) [2] = assay: Elevated Plus Maze test (EPM); assay type: in vivo; conditions: for total distance travelled in the EPM: compared to control
Protocol: (§1) Piperine was isolated from Piper nigrum as described by Zaugg et al. (2010) and obtained from SigmaAldrich (Vienna, Austria), respectively. Piperine derivatives were synthesized as described above. Stock solutions (1mg/10 µl) were prepared in DMSO (Dimethyl Sulfoxide, Sigma, Austria).Working concentrations were adjusted by dilution with 0.9% sodiumchloride. pH was adjusted to 7.2-7.4 with NaOH. For better solubility 3% of Tween80 was added to all solutions. All solutions were freshly prepared every day prior to experiments. Care was taken for equal amounts of DMSO in the actein and control solutions.
(§2) Male mice (C57BI/6N) were obtained from Charles River Laboratories (Germany). For breeding and maintenance mice were group housed with free access to food and water. Temperature was fixed to 23±1 °C and 60% humidity with a 12 h light-dark cycle (lights on 0700-1900 hours). Male mice at 3-6 months age were tested in all experiments. Every effort was taken to minimize the number of animals used (Khom et al., 2010).
The animals's behavior was tested over 5 min on an elevated plus maze 1 m above ground consisting of two closed and two open arms, each 50x5 cm in size (Khom et al., 2010). The test instrument was built from gray PVC; the height of closed arm walls was 20 cm. Illumination was set to 180 lux. Animals were placed in the center, facing an open arm. Analysis of open and closed arm entries and time on open arm was automatically done with Video-Mot 2 equipment and software (Khom et al., 2010).

PTZ-induced seizures = assay: Seizure threshold by PTZ tail-vein infusion; assay type: in vivo, mice; conditions: for effects on seizure threshold: PTZ 30 min after i.p. injection; for seizure threshold: 30 min after i.p. injection
Protocol: as §1, §2
Seizure threshold was determined by PTZ tail-vein infusion on freely moving animals at a rate of 100 µl/min ([…] PTZ in saline, pH 7.4). […] Animals were immediately killed by cervical displacement after the first generalized seizure. The seizure threshold dose was calculated from the infused volume in relation to body weight (Loacker et al. 2007). Piperine and piperine derivatives were applied at doses from 0.1 to 30 mg/kg 30 min before PTZ infusion. Control animals were pretreated with 10 % DMSO in saline containing 3 % Tween 80 (i. e. the solvent for all piperine doses).

[3] = target: GABAA channels composed of α1β2γ2 subunits (Homo sapiens, UniProt P14867+P18507+P47870); assay: Modulation of IGABA, two-microelectrode voltage clamp in Xenopus laevis oocytes; assay type: cell-based; conditions: α1β2γ2, GABA EC5-10, Fig. 2
GABAA channels composed of α1β2γ2 subunits, sequence (P14867 28-456): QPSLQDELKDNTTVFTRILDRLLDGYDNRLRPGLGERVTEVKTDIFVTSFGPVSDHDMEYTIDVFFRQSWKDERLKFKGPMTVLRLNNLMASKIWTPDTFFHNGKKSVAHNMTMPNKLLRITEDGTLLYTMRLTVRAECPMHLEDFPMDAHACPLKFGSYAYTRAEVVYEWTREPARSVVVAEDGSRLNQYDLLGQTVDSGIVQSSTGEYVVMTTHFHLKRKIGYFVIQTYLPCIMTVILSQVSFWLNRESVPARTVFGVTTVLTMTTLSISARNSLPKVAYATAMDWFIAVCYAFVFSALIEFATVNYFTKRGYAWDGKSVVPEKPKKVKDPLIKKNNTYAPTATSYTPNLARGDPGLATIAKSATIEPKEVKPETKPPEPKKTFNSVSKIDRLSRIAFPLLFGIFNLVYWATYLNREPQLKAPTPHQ
GABAA channels composed of α1β2γ2 subunits, sequence (P47870 25-512 limits assumed): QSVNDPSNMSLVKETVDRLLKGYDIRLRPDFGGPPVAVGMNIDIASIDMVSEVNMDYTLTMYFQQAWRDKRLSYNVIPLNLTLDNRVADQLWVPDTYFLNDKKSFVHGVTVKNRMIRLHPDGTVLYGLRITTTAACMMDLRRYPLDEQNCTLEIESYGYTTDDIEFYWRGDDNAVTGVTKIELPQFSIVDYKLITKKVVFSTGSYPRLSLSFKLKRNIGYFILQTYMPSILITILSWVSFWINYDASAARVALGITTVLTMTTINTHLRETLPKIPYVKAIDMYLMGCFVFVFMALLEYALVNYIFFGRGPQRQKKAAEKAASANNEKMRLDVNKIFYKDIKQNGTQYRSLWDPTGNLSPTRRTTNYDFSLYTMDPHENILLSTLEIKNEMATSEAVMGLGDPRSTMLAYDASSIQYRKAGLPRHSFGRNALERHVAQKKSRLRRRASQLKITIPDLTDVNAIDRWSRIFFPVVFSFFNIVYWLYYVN
GABAA channels composed of α1β2γ2 subunits, sequence (P18507 40-475): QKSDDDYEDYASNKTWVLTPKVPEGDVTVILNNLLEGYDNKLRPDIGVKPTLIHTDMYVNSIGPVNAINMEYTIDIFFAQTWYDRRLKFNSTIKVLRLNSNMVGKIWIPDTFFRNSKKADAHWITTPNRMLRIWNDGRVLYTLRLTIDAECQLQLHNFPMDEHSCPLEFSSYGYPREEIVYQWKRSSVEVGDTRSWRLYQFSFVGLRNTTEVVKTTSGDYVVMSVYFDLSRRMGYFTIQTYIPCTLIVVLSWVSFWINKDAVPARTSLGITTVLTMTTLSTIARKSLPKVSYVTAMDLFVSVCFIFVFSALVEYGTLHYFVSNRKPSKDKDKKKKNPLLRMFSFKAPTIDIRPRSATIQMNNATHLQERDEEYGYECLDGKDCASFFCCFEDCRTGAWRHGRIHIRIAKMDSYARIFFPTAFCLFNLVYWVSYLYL
Protocol: The following paragraphs describe the preparation of oocytes expressing the specific GABAA receptor subtype composed of α1, β2 and γ2 subunits and the subsequent analysis of the concentration-response curves of the stimulation of chloride currents through GABAA receptors (IGABA).
Preparation of stage V-VI oocytes from Xenopus laevis, synthesis of capped off run-off poly(A^+) cRNA transcripts from linearized cDNA templates (pCMV vector) was performed as described (Khom et al. 2006). Briefly, female Xenopus laevis (NASCO, USA) were anaesthetised by exposing them for 15 minutes to a 0.2 % solution of MS-222 (methane sulfonate salt of 3-aminobenzoic acid ethyl ester; Sandoz) before surgically removing parts of the ovaries. Follicle membranes from isolated oocytes were enzymatically digested with 2 mg/ml collagenase (Type 1A, Sigma). One day after isolation, the oocytes were injected with about […] of DEPC- treated water (diethyl pyrocarbonate, Sigma, Germany) containing the different cRNAs (encoding for α1, β2 and γ2 subunits) at a concentration of approximately 300 - 3000 pg/µl/subunit. The amount of cRNA was determined by means of a NanoDrop ND-1000 (Kiskerbiotech, Steinfurt, Germany).
Oocytes were stored at 18°C in ND96 solution (Methfessel et al., 1986). […]
Stimulation of chloride currents by modulators of the GABAA receptor was measured at a GABA concentration eliciting between 5 and 10 % of the maximal current amplitude (EC5-10). The EC5-10 was determined at the beginning of each experiment.
Enhancement of the chloride current was defined as (I(GABA+Comp)/IGABA) - 1, where I(GABA+Comp) is the current response in the presence of a given compound (piperine or piperin derivatives) and IGABA is the control GABA current. […] Statistical significance was calculated using paired Student t-test with a confidence interval of p < 0.05 (Khom et al., 2007). […]

Male mice (C57BI/6N) [4] = assay: Open Field test (OF); assay type: in vivo; conditions: 30 mg/kg bodyweight; for effect on total ambulation / total distance: 30 min after i.p. injection, Fig. 11B
Protocol: as §1, §2
Ambulation was tested over 10 min in a 50x50 cm flexfield box equipped with infrared rearing detection. Illumination was set to 150 lux. Animals were video monitored and their explorative behavior was analyzed using the Actimot 2 equipment and software (TSE-systems, Bad Homburg, Germany). Arenas were subdivided into border (up to 8 cm from wall), center (20x20 cm, i.e. 16% of total area), and intermediate area according to the recommendations of EMPRESS (European Mouse Phenotyping Resource of Standardised Screens; http://empress.har.mrc.ac.uk).

SMILES	cation current through TRPV1 receptors [1]	time spent on the open arms (OA) in % of the total time (Male mice (C57BI/6N) [2]; 0.3 mg/kg bodyweight, i.p.)	effects on seizure threshold (PTZ-induced seizures; Fig. 12)	modulation of IGABA [3]	effect on total ambulation / total distance (Male mice (C57BI/6N) [4])	further results
CCCCN(CCCC)C(=O)/C=C/C=C/c1ccc2c(c1)OCO2 [SCT-29]	no current was induced	not statistically significant	particularly active at low concentrations	positive allosteric modulatory effect by enhancing IGABA	no effect on ambulation	cation current through TRPV1 receptors ([1]; listed as SCT29): none of the derivatives SCT29, SCT64 or SCT66 induced cation currents
CC(C)N(C(=O)/C=C/C=C/c1ccc2c(c1)OCO2)C(C)C [SCT-46]	no current was induced					
CCN(CC)C(=O)/C=C/C=C/c1ccc2c(c1)OCO2 [SCT-54]			particularly active at low concentrations		no effect on ambulation	
CCCN(CCC)C(=O)/C=C/C=C/c1ccc2c(c1)OCO2 [SCT-64]	no current was induced	41.6 ± 3.2% and 44.2 ± 3.3%	particularly active at low concentrations	positive allosteric modulatory effect by enhancing IGABA	reduced the total distance	cation current through TRPV1 receptors ([1]; listed as SCT64): none of the derivatives SCT29, SCT64 or SCT66 induced cation currents; time spent on the open arms (OA) in % of the total time (Male mice (C57BI/6N) [2]; 10 mg/kg bodyweight, i.p.): 59.6 ± 4.9%; total distance travelled in the EPM (Male mice (C57BI/6N) [2]; i.p.): reducing slightly the total ambulation at doses ≥1 mg/kg bodyweight
CC(C)CN(CC(C)C)C(=O)/C=C/C=C/c1ccc2c(c1)OCO2 [SCT-66]	no current was induced	40.8 ± 3.2% and 38.1 ± 5.1%		positive allosteric modulatory effect by enhancing IGABA	reduced the total distance	cation current through TRPV1 receptors ([1]; listed as SCT66): none of the derivatives SCT29, SCT64 or SCT66 induced cation currents; time spent on the open arms (OA) in % of the total time (Male mice (C57BI/6N) [2]; 3 mg/kg bodyweight, i.p.): 46.5 ± 6.6%; total distance travelled in the EPM (Male mice (C57BI/6N) [2]; i.p.): no significant effect on ambulation; minimal effective dose (PTZ-induced seizures; Mus musculus, ip, 0.5 h, i.p., Fig. 12, read-out: doses of first significant effects on seizure threshold): ≥ 10 mg/kg
CCCCN(CCCC)C(=O)/C=C/C=C/c1cc(OC)c(OC)c(OC)c1 [SCT-68]	no current was induced					
O=C(/C=C/C=C/c1ccc2c(c1)OCO2)N1CCCCC1 [piperine, Piperine]		42.7 ± 4.4%				time spent on the open arms (OA) in % of the total time (Male mice (C57BI/6N) [2]; 0.1 mg/kg bodyweight, 30 min after i.p. injection): no significant effect; time spent on the open arms (OA) in % of the total time (Male mice (C57BI/6N) [2]; 1 mg/kg bodyweight, i.p.): 45.6 ± 6.6%; seizure threshold (PTZ-induced seizures; 3 mg/kg): 46.2 ± 5.44; seizure threshold (PTZ-induced seizures; 10 mg/kg): 48.7 ± 2.13; seizure threshold (PTZ-induced seizures; 30 mg/kg): 30.3 ± 3.43; reduction of ambulation compared to control littermates (Male mice (C57BI/6N) [4]; i.p.): more than 50%; traveled distance (total ambulation) (Male mice (C57BI/6N) [4]; i.p.): 16.5 ±3.8 m
